How the values were obtained:
[1] = target: T1, human recombinant adrenergic α2A receptor (Homo sapiens, UniProt P08913); experiment: Adrenergic α2A radioligand binding ([3H]MK-912); conditions: compound at 1 μM; insect Sf9 cells; read-out: Adrenergic (1 μM) α2A, percent inhibition of specific binding
T1 construct: expressed in transfected cells; host or cells: insect Sf9 cells
T1 sequence (P08913 1-465): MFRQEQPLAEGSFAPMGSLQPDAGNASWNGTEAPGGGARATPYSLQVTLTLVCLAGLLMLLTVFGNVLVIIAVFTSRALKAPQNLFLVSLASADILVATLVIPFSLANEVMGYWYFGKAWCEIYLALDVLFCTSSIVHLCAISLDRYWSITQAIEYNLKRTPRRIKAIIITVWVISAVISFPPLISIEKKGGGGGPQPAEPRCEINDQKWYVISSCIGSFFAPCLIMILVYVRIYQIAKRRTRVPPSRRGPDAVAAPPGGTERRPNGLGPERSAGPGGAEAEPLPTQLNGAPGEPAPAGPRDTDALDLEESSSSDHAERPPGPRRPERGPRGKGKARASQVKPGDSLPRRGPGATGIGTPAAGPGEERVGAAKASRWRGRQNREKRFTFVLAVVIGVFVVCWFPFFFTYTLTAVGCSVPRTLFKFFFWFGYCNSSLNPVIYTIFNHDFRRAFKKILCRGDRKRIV
In short: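 Membranes from Sf9 cells expressing the receptor were incubated with 1 nM [3H]MK-912 for 60 min at 25 °C in Tris-HCl pH 7.4 with MgCl2 and EDTA. Nonspecific binding defined by 10 μM WB-4101; compounds tested at ≤1 μM (1% DMSO), reported as percent inhibition of specific binding.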

[2] = target: T2, human recombinant adrenergic α2B receptor (Homo sapiens, UniProt P18089); experiment: Adrenergic α2B radioligand binding ([3H]Rauwolscine); conditions: compound at 1 μM; CHO-K1 cells; read-out: Adrenergic (1 μM) α2B, percent inhibition of specific binding
T2 construct: expressed in transfected cells; host or cells: CHO-K1 cells
T2 sequence (P18089 1-450): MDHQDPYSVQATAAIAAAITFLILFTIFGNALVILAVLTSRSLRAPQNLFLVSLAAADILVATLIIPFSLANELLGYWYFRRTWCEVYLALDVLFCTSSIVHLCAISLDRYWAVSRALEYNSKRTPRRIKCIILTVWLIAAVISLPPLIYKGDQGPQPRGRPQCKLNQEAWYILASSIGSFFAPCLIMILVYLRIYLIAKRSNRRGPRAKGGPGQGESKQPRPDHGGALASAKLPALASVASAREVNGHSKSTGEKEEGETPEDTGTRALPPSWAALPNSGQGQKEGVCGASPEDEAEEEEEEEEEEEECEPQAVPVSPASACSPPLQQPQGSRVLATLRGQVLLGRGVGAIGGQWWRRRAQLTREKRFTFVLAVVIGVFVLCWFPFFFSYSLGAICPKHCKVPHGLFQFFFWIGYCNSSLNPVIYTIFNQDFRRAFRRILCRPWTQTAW
In short: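 CHO-K1 membranes expressing the receptor were incubated with test compounds (1 μM or lower, 1% DMSO) and 2.5 nM [3H]Rauwolscine for 60 min at 25° C in Tris-HCl pH 7.4 with MgCl2, EDTA and BSA. Bound radioactivity was filtered and counted; nonspecific binding was defined with 10 μM Prazosin, giving percent inhibition of specific binding.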

[3] = target: T3, human recombinant dopamine D2L receptor (Homo sapiens, UniProt P14416); experiment: Dopamine D2L radioligand binding ([3H]Spiperone); conditions: compound at 1 μM; CHO cells; read-out: Dopamine (1 μM) D2L, percent inhibition of specific binding
T3 construct: expressed in transfected cells; host or cells: CHO cells
T3 sequence (P14416 whole entry): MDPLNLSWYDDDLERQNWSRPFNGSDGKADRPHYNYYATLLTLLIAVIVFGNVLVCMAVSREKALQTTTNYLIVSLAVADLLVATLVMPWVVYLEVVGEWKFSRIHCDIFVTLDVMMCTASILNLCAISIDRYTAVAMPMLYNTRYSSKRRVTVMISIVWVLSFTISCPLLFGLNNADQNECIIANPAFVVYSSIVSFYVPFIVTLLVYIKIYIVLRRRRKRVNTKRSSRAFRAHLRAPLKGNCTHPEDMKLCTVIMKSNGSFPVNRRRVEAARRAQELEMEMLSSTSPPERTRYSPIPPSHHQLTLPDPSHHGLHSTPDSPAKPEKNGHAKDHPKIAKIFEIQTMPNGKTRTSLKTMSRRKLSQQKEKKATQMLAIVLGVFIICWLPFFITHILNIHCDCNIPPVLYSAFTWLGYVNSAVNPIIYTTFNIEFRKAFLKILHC
In short: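 CHO cells expressing the receptor, in 50 mM Tris-HCl pH 7.4 with 1.4 mM ascorbic acid, 0.001% BSA, 150 mM NaCl; 0.16 nM [3H]spiperone, 120 min at 25° C, nonspecific binding with 10 μM haloperidol.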

[4] = target: T4, human recombinant serotonin (5-Hydroxytryptamine) 5-HT6 receptor (Homo sapiens, UniProt P50406); experiment: Serotonin 5-HT6 radioligand binding ([3H]LSD); conditions: compound at 1 μM; HeLa cells; read-out: Serotonin (1 μM) 5-HT6, percent inhibition of specific binding
T4 construct: expressed in transfected cells; host or cells: human HeLa cells
T4 sequence (P50406 whole entry): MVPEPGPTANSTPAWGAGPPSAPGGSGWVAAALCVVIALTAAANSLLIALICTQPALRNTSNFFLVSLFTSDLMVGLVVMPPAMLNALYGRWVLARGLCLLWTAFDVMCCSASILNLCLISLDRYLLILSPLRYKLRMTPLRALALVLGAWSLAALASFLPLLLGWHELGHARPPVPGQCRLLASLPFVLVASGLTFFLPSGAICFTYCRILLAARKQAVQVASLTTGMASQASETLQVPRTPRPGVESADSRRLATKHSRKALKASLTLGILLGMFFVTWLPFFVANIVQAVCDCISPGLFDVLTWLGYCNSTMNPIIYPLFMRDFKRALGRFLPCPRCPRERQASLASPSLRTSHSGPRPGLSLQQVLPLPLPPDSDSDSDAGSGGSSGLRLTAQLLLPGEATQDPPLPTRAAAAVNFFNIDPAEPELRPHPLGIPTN
In short: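 HeLa membranes expressing receptor, in 50 mM Tris-HCl pH 7.4 with 150 mM NaCl, 2 mM ascorbate, 0.001% BSA, incubated with 1.5 nM [3H]LSD for 120 min at 37 °C. Nonspecific binding defined with 5 μM 5-HT.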

For `CCCCOC(=O)Cn1c2c(c3cc(Cl)ccc31)CN(C)CC2` [Compound 52, butyl 2-(8-chloro-1,2,3,4-tetrahydro-2-methylpyrido[4,3-b]indol-5-yl)acetate], which inhibition at 1 µM [1] is on record?
The inhibition at 1 µM was 38%.

What about the inhibition at 1 µM [2] of the same compound?
Its inhibition at 1 µM is 89%.

And the inhibition at 1 µM [3]?
The inhibition at 1 µM was 22%.

And the inhibition at 1 µM [4]?
The inhibition at 1 µM was 83%.

`Cc1ccc2c(c1)c1c(n2CCC(=O)NC(C)C)CCN(C)C1` [Compound 53] was tested. Which inhibition at 1 µM [1] did it give?
The inhibition at 1 µM was 54%.

What about the inhibition at 1 µM [2] of the same compound?
The inhibition at 1 µM was 86%.

And the inhibition at 1 µM [3]?
The inhibition at 1 µM was -2%.

What about the inhibition at 1 µM [4] of the same compound?
Its inhibition at 1 µM is 22%.

Which results are given for `Cc1ccc2c(c1)c1c(n2CCC(=O)NCc2ccccc2)CCN(C)C1` [Compound 59, N-benzyl-3-(1,2,3,4-tetrahydro-2,8-dimethylpyrido[4,3-b]indol-5-yl)propanamide]?
inhibition at 1 µM [1]: 45%; inhibition at 1 µM [2]: 96%; inhibition at 1 µM [3]: 4%; inhibition at 1 µM [4]: 22%

How did the inhibition at 1 µM [1] turn out when `CN1CCc2c(c3cc(Cl)ccc3n2CC(=O)NC2CCCCC2)C1` [Compound 60, 2-(8-chloro-1,2,3,4-tetrahydro-2-methylpyrido[4,3-b]indol-5-yl)-N-cyclohexylacetamide] was run?
Its inhibition at 1 µM is 23%.

What about the inhibition at 1 µM [2] of the same compound?
Its inhibition at 1 µM is 52%.

What about the inhibition at 1 µM [3] of the same compound?
The inhibition at 1 µM was 18%.

And the inhibition at 1 µM [4]?
Its inhibition at 1 µM is 22%.

Which inhibition at 1 µM [1] does the source give for `Cc1ccc2c(c1)c1c(n2CCNC(=O)C(C)C)CCN(C)C1` [Compound 61, N-(2-(1,2,3,4-tetrahydro-2,8-dimethylpyrido[4,3-b]indol-5-yl)ethyl)isobutyramide] here?
Its inhibition at 1 µM is 46%.

And the inhibition at 1 µM [2]?
The inhibition at 1 µM was 70%.

And the inhibition at 1 µM [3]?
Its inhibition at 1 µM is -3%.

What about the inhibition at 1 µM [4] of the same compound?
Its inhibition at 1 µM is 10%.

How did the inhibition at 1 µM [1] turn out when `Cc1ccc2c(c1)c1c(n2CCNC(=O)C2CCCCC2)CCN(C)C1` [Compound 62, N-(2-(1,2,3,4-tetrahydro-2,8-dimethylpyrido[4,3-b]indol-5-yl)ethyl)cyclohexanecarboxamide] was run?
The inhibition at 1 µM was 40%.

What about the inhibition at 1 µM [2] of the same compound?
Its inhibition at 1 µM is 92%.

What about the inhibition at 1 µM [3] of the same compound?
Its inhibition at 1 µM is 5%.

What about the inhibition at 1 µM [4] of the same compound?
The inhibition at 1 µM was 19%.

`Cc1ccc2c(c1)c1c(n2CCNC(=O)c2ccc(F)cc2Cl)CCN(C)C1` [Compound 63, 2-chloro-4-fluoro-N-(2-(1,2,3,4-tetrahydro-2,8-dimethylpyrido[4,3-b]indol-5-yl)ethyl)benzamide] was tested. Which inhibition at 1 µM [1] did it give?
Its inhibition at 1 µM is 65%.

What about the inhibition at 1 µM [2] of the same compound?
The inhibition at 1 µM was 98%.

What about the inhibition at 1 µM [3] of the same compound?
Its inhibition at 1 µM is 7%.

And the inhibition at 1 µM [4]?
Its inhibition at 1 µM is 31%.

How did the inhibition at 1 µM [1] turn out when `Cc1ccc2c(c1)c1c(n2CC(N)=O)CCN(C)C1` [Compound 64, 2-(1,2,3,4-tetrahydro-2,8-dimethylpyrido[4,3-b]indol-5-yl)acetamide] was run?
The inhibition at 1 µM was 9%.

And the inhibition at 1 µM [2]?
The inhibition at 1 µM was 40%.

And the inhibition at 1 µM [3]?
Its inhibition at 1 µM is 2%.

What about the inhibition at 1 µM [4] of the same compound?
Its inhibition at 1 µM is 5%.

Which inhibition at 1 µM [1] does the source give for `Cc1ccc2c(c1)c1c(n2CCNC(=O)C2CCNCC2)CCN(C)C1` [Compound 65, N-(2-(1,2,3,4-tetrahydro-2,8-dimethylpyrido[4,3-b]indol-5-yl)ethyl)piperidine-4-carboxamide] here?
The inhibition at 1 µM was 17%.

And the inhibition at 1 µM [2]?
The inhibition at 1 µM was 12%.

And the inhibition at 1 µM [3]?
Its inhibition at 1 µM is 7%.

And the inhibition at 1 µM [4]?
The inhibition at 1 µM was 3%.

For `Cc1ccc2c(c1)c1c(n2CCNC(=O)c2ccc(F)cc2)CCN(C)C1` [Compound 66, 4-fluoro-N-(2-(1,2,3,4-tetrahydro-2,8-dimethylpyrido[4,3-b]indol-5-yl)ethyl)benzamide], which inhibition at 1 µM [1] is on record?
Its inhibition at 1 µM is 70%.

What about the inhibition at 1 µM [2] of the same compound?
The inhibition at 1 µM was 107%.

What about the inhibition at 1 µM [3] of the same compound?
The inhibition at 1 µM was -2%.

And the inhibition at 1 µM [4]?
Its inhibition at 1 µM is 35%.

`CN1CCc2c(c3cc(Cl)ccc3n2CCC(N)=O)C1` [Compound 67, 3-(8-chloro-1,2,3,4-tetrahydro-2-methylpyrido[4,3-b]indol-5-yl)propanamide] was tested. Which inhibition at 1 µM [1] did it give?
Its inhibition at 1 µM is 79%.

And the inhibition at 1 µM [2]?
The inhibition at 1 µM was 72%.

What about the inhibition at 1 µM [3] of the same compound?
Its inhibition at 1 µM is -1%.

And the inhibition at 1 µM [4]?
Its inhibition at 1 µM is 24%.

For `Cc1ccc2c(c1)c1c(n2CCNC(=O)C2CCCC2)CCN(C)C1` [Compound 68, N-(2-(1,2,3,4-tetrahydro-2,8-dimethylpyrido[4,3-b]indol-5-yl)ethyl)cyclopentanecarboxamide], which inhibition at 1 µM [1] is on record?
The inhibition at 1 µM was 62%.

What about the inhibition at 1 µM [2] of the same compound?
Its inhibition at 1 µM is 84%.

What about the inhibition at 1 µM [3] of the same compound?
The inhibition at 1 µM was 1%.

What about the inhibition at 1 µM [4] of the same compound?
The inhibition at 1 µM was 15%.

Which results are given for `Cc1ccc2c(c1)c1c(n2CCNC(=O)c2ccncc2C)CCN(C)C1` [Compound 69, N-(2-(1,2,3,4-tetrahydro-2,8-dimethylpyrido[4,3-b]indol-5-yl)ethyl)-3-methylpyridine-4-carboxamide]?
inhibition at 1 µM [1]: 25%; inhibition at 1 µM [2]: 39%; inhibition at 1 µM [3]: 4%; inhibition at 1 µM [4]: -4%

`Cc1ccc2c(c1)c1c(n2C2CCCCC2O)CCN(C)C1` (centres unmarked) [Compound 73, 2-(1,2,3,4-tetrahydro-2,8-dimethylpyrido[4,3-b]indol-5-yl)cyclohexanol] was tested. Which inhibition at 1 µM [1] did it give?
Its inhibition at 1 µM is 11%.

What about the inhibition at 1 µM [2] of the same compound?
Its inhibition at 1 µM is -2%.

And the inhibition at 1 µM [3]?
Its inhibition at 1 µM is -3%.

What about the inhibition at 1 µM [4] of the same compound?
Its inhibition at 1 µM is 7%.
